# Active and inactive are the calls of the source.
# How the values were obtained:
# [1] = reduction of Shn3 3'UTR-driven luciferase in osteoblasts – cell-based, Clone20 osteoblasts, firefly luciferase, cherry-picked, dose response (AID 624132); type: functional;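 further: firefly luciferase luminescence from reporter carrying the Shn3 3'UTR in osteoblasts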
# [2] = loss of viability in HepG2 cells – cell-based, CellTiter-Glo, cherry-picked, cytotoxicity control for Shn3 inhibitor project, dose response (AID 624134); type: functional
# [3] = non-specific 3'UTR reporter inhibition in Clone20-Shn3RL – cell-based, Renilla luciferase, cherry-picked, counter-screen for Shn3 inhibitor project, dose response (AID 624133); type: functional
# [4] = biological target: T1, Galanin receptor type 3 (Homo sapiens, UniProt O60755); test: Fluorescence-based cell-based primary high throughput dose response assay to identify antagonists of the Galanin Receptor 3 (GalR3).; type: functional
# T1 sequence (O60755 whole entry): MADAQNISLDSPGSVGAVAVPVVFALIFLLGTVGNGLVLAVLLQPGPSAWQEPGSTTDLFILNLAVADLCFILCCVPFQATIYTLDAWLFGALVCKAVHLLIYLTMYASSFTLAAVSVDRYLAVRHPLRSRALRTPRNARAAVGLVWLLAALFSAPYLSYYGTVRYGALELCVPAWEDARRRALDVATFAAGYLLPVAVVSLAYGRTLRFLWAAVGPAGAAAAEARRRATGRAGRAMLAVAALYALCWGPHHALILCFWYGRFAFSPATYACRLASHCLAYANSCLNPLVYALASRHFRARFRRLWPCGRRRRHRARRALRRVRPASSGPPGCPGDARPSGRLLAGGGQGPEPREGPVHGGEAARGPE
# [5] = cells; type: functional, cell-based; conditions: HEK-CNG
# [6] = biological target: T2, COUP transcription factor 2 (Homo sapiens, UniProt P24468); test: Luminescence-based cell-based high throughput dose response assay to identify inhibitors of COUP-TFII (NR2F2).; type: functional;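 further: HEK293 cells transiently cotransfected with COUP-TFII expression vector and reporter; luciferase reporter luminescence driven by COUP-TFII from the pX2-168 reporter plasmid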
# T2 sequence (P24468 whole entry): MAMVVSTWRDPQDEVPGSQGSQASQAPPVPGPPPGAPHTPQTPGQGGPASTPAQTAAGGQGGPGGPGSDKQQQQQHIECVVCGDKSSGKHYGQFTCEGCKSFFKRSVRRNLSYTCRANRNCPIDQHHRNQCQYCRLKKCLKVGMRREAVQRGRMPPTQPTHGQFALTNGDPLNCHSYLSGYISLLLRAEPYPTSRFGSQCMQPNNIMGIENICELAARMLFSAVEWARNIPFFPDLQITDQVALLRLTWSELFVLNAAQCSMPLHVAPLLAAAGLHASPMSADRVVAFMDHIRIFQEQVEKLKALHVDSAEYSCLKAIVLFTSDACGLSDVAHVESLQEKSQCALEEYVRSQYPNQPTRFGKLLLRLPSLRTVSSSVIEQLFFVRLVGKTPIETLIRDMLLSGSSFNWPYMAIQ
# [7] = cells; type: functional, cell-based
# [8] = biological target: T3, Trace amine-associated receptor 1 (Homo sapiens, UniProt Q96RJ0); test: Fluorescence-based cell-based high throughput dose response assay to identify agonists of the human trace amine associated receptor 1 (TAAR1).; type: functional
# T3 sequence (Q96RJ0 whole entry): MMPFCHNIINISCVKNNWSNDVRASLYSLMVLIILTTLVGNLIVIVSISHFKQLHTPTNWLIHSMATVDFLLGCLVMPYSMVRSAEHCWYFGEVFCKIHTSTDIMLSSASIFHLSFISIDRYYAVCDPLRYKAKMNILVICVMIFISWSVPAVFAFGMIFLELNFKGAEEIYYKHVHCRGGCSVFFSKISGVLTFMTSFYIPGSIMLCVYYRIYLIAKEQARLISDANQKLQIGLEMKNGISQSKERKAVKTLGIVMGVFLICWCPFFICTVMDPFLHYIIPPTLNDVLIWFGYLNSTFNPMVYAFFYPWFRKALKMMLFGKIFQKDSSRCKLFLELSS
# [9] = biological target: T3, Trace amine-associated receptor 1; test: Counterscreen for agonists of the human trace amine associated receptor 1 (hTAAR1): Fluorescence-based cell-based high throughput dose response assay to identify hTAAR1 agonist that also desensitize TAAR1 receptor response.; type: functional
# [10] = cells; type: functional, cell-based; remark: listed apart in the source
# [11] = biological target: T4, Replicative DNA helicase DnaB (Mycobacterium tuberculosis, UniProt P9WMR3); test: DnaB intein splicing inhibitors, dose response, biochemical, cell-free fluorescence (AID 449749); type: functional
# T4 sequence (P9WMR3 whole entry): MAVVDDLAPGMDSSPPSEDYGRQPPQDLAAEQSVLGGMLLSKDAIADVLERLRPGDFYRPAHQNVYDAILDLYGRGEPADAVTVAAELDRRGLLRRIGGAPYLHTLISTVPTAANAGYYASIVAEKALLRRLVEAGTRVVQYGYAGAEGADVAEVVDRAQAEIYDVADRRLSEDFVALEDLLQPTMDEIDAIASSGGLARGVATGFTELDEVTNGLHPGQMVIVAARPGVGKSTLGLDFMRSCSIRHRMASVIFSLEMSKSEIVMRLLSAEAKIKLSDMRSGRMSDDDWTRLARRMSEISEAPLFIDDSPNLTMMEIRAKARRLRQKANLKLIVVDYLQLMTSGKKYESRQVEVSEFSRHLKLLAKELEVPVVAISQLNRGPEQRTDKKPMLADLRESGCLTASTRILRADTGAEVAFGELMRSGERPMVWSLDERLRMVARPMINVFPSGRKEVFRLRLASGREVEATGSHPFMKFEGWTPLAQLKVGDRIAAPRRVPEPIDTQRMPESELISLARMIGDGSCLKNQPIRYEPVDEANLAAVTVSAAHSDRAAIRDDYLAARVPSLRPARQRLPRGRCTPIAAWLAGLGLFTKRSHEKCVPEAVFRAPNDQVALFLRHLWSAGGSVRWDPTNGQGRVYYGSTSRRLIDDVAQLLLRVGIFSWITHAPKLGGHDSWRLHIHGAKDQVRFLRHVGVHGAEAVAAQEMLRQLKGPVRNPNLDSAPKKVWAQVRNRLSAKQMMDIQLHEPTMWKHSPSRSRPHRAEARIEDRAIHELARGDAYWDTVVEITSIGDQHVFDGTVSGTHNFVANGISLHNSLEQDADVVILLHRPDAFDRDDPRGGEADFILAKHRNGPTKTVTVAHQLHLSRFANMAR
# [12] = biological target: T5, Protein RecA (Mycobacterium tuberculosis, UniProt P9WHJ3); test: Fluorescence Cell-Free Homogeneous Dose Retest to Identify Inhibitors of RecA-Intein Splicing Activity. [Related pubchem assays (depositor defined):AID2097, AID2223, AID489010, AID492950]; type: functional
# T5 sequence (P9WHJ3 whole entry): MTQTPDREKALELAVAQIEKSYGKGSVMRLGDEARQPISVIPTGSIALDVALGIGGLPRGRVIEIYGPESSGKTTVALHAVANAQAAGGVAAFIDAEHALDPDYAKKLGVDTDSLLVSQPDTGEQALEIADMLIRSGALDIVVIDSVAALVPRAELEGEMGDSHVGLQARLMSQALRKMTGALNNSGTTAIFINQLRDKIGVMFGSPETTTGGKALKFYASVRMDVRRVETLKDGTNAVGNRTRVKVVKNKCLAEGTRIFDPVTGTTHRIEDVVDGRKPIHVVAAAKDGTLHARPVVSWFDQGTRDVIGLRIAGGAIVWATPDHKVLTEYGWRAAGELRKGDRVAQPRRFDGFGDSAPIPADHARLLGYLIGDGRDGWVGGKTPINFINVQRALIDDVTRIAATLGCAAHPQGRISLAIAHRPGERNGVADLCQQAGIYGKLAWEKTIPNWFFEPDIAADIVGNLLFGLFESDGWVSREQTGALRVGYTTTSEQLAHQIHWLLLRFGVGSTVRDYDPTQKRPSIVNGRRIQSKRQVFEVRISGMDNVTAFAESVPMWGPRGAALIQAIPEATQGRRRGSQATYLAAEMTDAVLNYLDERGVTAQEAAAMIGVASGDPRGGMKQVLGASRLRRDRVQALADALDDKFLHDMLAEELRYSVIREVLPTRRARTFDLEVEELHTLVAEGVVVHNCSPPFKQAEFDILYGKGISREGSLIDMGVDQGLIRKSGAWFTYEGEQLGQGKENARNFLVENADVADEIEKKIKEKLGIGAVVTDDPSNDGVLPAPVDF
# [13] = biological target: T6, Caspase-6 (Homo sapiens, UniProt P55212); test: inhibition of CASP6 peptide cleavage – biochemical, VEID-R110 fluorescence, cherry-pick, dose response (AID 720632)
# T6 sequence (P55212 whole entry): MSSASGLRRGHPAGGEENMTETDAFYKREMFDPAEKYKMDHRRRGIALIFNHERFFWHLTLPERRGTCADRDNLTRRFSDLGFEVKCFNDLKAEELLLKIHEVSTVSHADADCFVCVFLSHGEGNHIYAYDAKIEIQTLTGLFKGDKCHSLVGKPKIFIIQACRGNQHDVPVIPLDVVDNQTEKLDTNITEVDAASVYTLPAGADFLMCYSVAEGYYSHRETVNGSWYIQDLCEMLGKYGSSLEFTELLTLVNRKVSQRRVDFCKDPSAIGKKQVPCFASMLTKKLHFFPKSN
# [14] = biological target: Paired box protein Pax-8 (Homo sapiens, UniProt Q06710); test: PAX8 transcriptional activity inhibition in RMG-I – RMG-I cells, luciferase, cherry-pick, dose response (AID 687027); type: functional, cell-based;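 further: luciferase reporter driven by Pax8 target thyroperoxidase promoter measured by SteadyGlo luminescence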
# Sequence of Paired box protein Pax-8 (Q06710 whole entry): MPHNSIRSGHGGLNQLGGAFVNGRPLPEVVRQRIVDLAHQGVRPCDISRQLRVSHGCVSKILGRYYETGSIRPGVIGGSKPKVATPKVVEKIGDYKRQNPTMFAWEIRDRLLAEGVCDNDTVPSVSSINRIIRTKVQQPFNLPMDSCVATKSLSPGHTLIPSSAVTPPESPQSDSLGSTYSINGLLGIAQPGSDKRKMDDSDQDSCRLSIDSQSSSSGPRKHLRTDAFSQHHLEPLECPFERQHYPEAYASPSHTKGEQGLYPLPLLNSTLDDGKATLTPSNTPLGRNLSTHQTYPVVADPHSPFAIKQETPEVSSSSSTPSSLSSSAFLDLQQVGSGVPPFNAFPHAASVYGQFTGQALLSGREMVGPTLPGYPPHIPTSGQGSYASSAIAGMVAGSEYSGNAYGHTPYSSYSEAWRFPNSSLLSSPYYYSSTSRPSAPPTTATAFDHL
# [15] = A2780 cell killing – plate reader, dry powder samples, cytotoxicity control, dose response (AID 743046); type: functional, cell-based
# [16] = OVCAR-3 cell viability loss – plate reader, dry powder samples, PAX8 inhibitor project, dose response (AID 743044); type: functional, cell-based
# [17] = IGROV1 cell killing – plate reader, dry powder samples, PAX8 inhibitor project, dose response (AID 743043); type: functional, cell-based; conditions: IGROV-1
# [18] = OVCAR8 cell viability loss – plate reader, dry powder samples, PAX8 project, dose response (AID 743197); type: functional, cell-based; conditions: OVCAR-8
# [19] = growth inhibition of yeast DHODH-expressing 3D7 parasites – SYBR Green, dry powder samples, dose response (AID 1159570); type: functional, cell-based;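 further: parasite growth measured after 72 hours of compound exposure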
# [20] = toxicity to human HepG2 hepatoma cells – cell-based, plate reader, dry powder samples, cytotoxicity control, dose response (AID 1159569); type: functional;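 further: inhibitor potency with signal falling toward the positive control level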
# [21] = P. falciparum Dd2 growth inhibitors, dose response, SYBR Green, cherry-picked samples (AID 1159567); type: functional, cell-based
# [22] = Dd2 malaria parasite growth inhibition potency – SYBR Green, dry powder samples, dose response (AID 1159566); type: functional, cell-based;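 further: potency for growth inhibition with lower SYBR green DNA signal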
# [23] = growth inhibition of PfATP4-mutant resistant parasites – NITD609-resistant line, SYBR Green, dry powder, dose response (AID 1159571); type: functional, cell-based;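 further: parasites synchronized at ring stage by sorbitol before testing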
smiles,measurement,setting,value
CCCCCCn1c(NCC)nc2c1c(=O)n(C)c(=O)n2C,AC50,[1],0.834 µM (active)
same,AC50,[2],2.55 µM (active)
same,AC50,[3],9.18 µM (active)
same,IC50,[4],> 1.11 µM (active)
same,EC50,[5],> 29.9 µM (inactive)
same,IC50,[6],9.46 µM (active)
Oc1cnnc(Nc2ccccc2)n1,IC50,[7],> 29.9 µM (inactive)
same,EC50,[8],4.6 µM (active)
same,IC50,[9],> 29.9 µM (inactive)
same,EC50,[10],> 29.9 µM (inactive)
Cc1ccccc1-c1nc(CS(=O)(=O)CC(=O)NCCc2ccccc2)c(C)o1,IC50,[7],> 29.9 µM (inactive)
same,EC50,[8],3.59 µM (active)
same,IC50,[9],8.58 µM (active)
same,EC50,[10],> 29.9 µM (inactive)
Cc1cc2c(ccc3c2no[n+]3[O-])nn1,IC50,[4],> 29.9 µM (inactive)
same,EC50,[5],> 29.9 µM (inactive)
CC1=NN(c2ccc(S(=O)(=O)O)cc2Cl)C(=O)C1,AC50,[11],4.45 µM (active)
same,EC50,[12],9.45 µM (active)
same,AC50,[13],19 µM (active)
N#Cc1c(N)sc2c1CCN(CCc1ccccc1)C2,IC50,[7],> 29.9 µM (inactive)
same,EC50,[8],1.58 µM (active)
same,IC50,[9],9.09 µM (active)
same,EC50,[10],> 29.9 µM (inactive)
COc1ccc(-c2ccc3c(c2)[C@@H]2[C@@H](CCN2C(=O)C2CCCCC2)[C@H](CO)N3C)cc1,AC50,[14],6.75 µM (active)
same,AC50,[15],10.7 µM (active)
same,AC50,[16],25.2 µM (active)
same,AC50,[17],47.5 µM (active)
same,AC50,[18],32.7 µM (active)
C[C@@H]1CN([C@H](C)CO)C(=O)c2cc(NC(=O)NC3CCCCC3)ccc2O[C@@H](C)CCCCO[C@H]1CN(C)Cc1ccc(C(F)(F)F)cc1,AC50,[14],6.85 µM (active)
same,AC50,[15],25.7 µM (active)
same,AC50,[16],12.7 µM (active)
same,AC50,[17],24.8 µM (active)
same,AC50,[18],54.1 µM (active)
C[C@@H]1CCCCO[C@@H](CN(C)C(=O)NC2CCCCC2)[C@H](C)CN([C@H](C)CO)C(=O)c2cc(NS(=O)(=O)c3ccc(Cl)cc3)ccc2O1,AC50,[14],7.57 µM (active)
same,AC50,[15],15.7 µM (active)
same,AC50,[16],38.3 µM (active)
same,AC50,[18],> 70 µM (inactive)
O=C(N[C@@H](Cc1cccnc1)C(=O)N1CCC[C@H]1C(=O)NCCc1ccccc1Cl)C1CCCC1,IC50,[7],> 29.9 µM (inactive)
same,EC50,[8],2.91 µM (active)
same,IC50,[9],3.72 µM (active)
same,EC50,[10],> 29.9 µM (inactive)
Fc1ccc(CN2CCN(c3ncc(Cc4ccccc4)cn3)CC2)c(Cl)c1,IC50,[4],1.06 µM (active)
same,EC50,[5],> 29.9 µM (inactive)
same,IC50,[6],10.1 µM (inactive)
C[C@@H]1CN([C@H](C)CO)C(=O)c2cc(C#Cc3cccc(F)c3)cnc2O[C@@H]1CN(C)C(=O)C1CCCCC1,AC50,[19],3.19 µM (active)
same,AC50,[20],30.1 µM (active)
same,AC50,[21],2.91 µM (active)
same,AC50,[22],2.16 µM (active)
same,AC50,[23],2.66 µM (active)
C[C@H]1CN([C@@H](C)CO)C(=O)c2ccccc2-c2ccccc2CO[C@@H]1CN(C)C(=O)Nc1ccc(-c2ccccc2)cc1,AC50,[19],1.35 µM (active)
same,AC50,[20],> 100 µM (inactive)
same,AC50,[21],1.77 µM (active)
same,AC50,[22],0.723 µM (active)
same,AC50,[23],1.56 µM (active)
COc1ccccc1CN1CC2(C1)[C@H](c1ccccc1)[C@H](CO)N2Cc1ccccc1,AC50,[19],4.14 µM (active)
same,AC50,[20],23.9 µM (active)
same,AC50,[22],1.96 µM (active)
same,AC50,[23],2.85 µM (active)
